The subject of series [1] is isolated guinea pig trachea. The note with it: trachea pre-constricted with acetylcholine, histamine, serotonin and barium chloride; cited from earlier work.
Series [2] in a line: Later pharmacokinetic studies in healthy volunteers (multiple doses). Format: in vivo, human. The note with it: 80, 200 and 320 mg b.i.d. for three and a half days.
Series [3] relates to antigen- and PAF-induced bronchoconstriction. The note with it: pre-administration, guinea pigs in vivo; cited from earlier work.
In the next series the test system is prostaglandin D2. The experiment in a line: Urinary excretion of 11β-PGF2α (PGD2 metabolite, mast cell biomarker), EIA. Format: in vivo, human. Particulars: for baseline production of PGD2 in asthmatics without ongoing attacks: n=22-24. The method, then:
A secondary endpoint in the study was to analyse changes in urinary excretion of a metabolite (11β-prostaglandin (PG) F2α) of the lung mast cell mediator/biomarker prostaglandin D2. 11β-PGF2α analysis was performed in unextracted urine samples using a validated enzyme immunoassays (EIA) kit from Cayman Chemical, Ann Arbor, Mich., USA (Item no 516521). Absolute values of the mediators were expressed as nanograms 11β-PGF2α per millimole creatinine.
• a) Withdrawal from trial visit criteria to be checked • b) Urine sampling for 11β-PGF2α analysis • c) Blood sampling for haematology and blood biochemistry • d) Vital signs, physical examination, adverse events and concomitant medication 2) Administration of IMP 3 hours (+/−10 min) before the mannitol challenge 3) Before mannitol challenge: • a) <10 min before: Urine sampling for 11β-PGF2α analysis • b) <10 min before: Blood sampling for analysis of plasma pemirolast concentration 4) Mannitol test 3 hours (+/−10 min) after IMP administration 5) After mannitol challenge: • a) Urine sampling for 11β-PGF2α, 30 minutes after mannitol challenge • b) Pregnancy test (Visit 4 only, in addition to prior to enrolment) • e) Recording of concomitant medication just before sending the patient home • f) Reporting of AEs just before sending the subject home
Prostaglandin D2 (PGD2) is released from mast cells (e.g. in the lung) and is known as a mediator of asthmatic bronchoconstriction (Hardy et al, N. Engl. J. Med., 311, 209 (1984)). Urinary levels of the PGD2 metabolite 11β-PGF2α increase acutely during asthmatic attacks, including those induced by mannitol inhalation (Brannan et al, Eur. Respir. J., 22, 491 (2003)). This PGD2 metabolite is therefore used as a biomarker for mast cell activation in asthmatics.

The conditions of series [4]: twice daily 50 mg doses in humans; cited from earlier work.
In a further series the test system is isolated tracheal muscle. Particulars: isolated guinea pig tracheal muscle, cited from earlier work.
A short description of series [5]: Single and multiple-dose open safety, tolerability and pharmacokinetic study of pemirolast potassium tablets, with linear Cmax extrapolation. Format: in vivo, human. The note with it: linear extrapolation from 42.5 mg multiple dose. The method, then: This study comprised 18 healthy male subjects, 18-45 years of age, and was a single and multiple-dose, open study assessing the safety and tolerability of pemirolast potassium tablets (10 mg, Ulgixal™ tablets) with the doses 10, 30 and 50 mg (containing 8.5, 25.5 and 42.5 mg pemirolast free acid, respectively) b.i.d. (6 subjects in each dose group). The subjects received a single dose on the first day, then b.i.d. for three days and a single dose on the fifth day. The study was performed at the Berzelius Clinical Research Center AB in Linköping, Sweden. All laboratory pharmacokinetic analyses were performed by Quintiles AB, Uppsala, Sweden. Pharmacokinetic calculations were performed by Pharm Assist Sweden AB, Uppsala, Sweden. Mean Cmax data after multiple dosing are shown in and Table 1, and mean plasma concentrations over time on Day 5 are shown in FIG. 1. Based on these clinical data, Cmax predictions were made (assumption: Linear pharmacokinetics when extrapolating to higher dose levels) and are presented in Table 2.

The subject of another series is human bronchial tissue. The experiment in a line: Bronchodilatory effect on pre-contracted isolated human bronchi (myograph, isometric tension). In kind it is cell-based. Particulars: for effect on bronchoconstriction induced by carbachol: carbachol 3 μM; for effect on bronchoconstriction induced by histamine: histamine 1 μM.
For series [6], the system named is asthma patients challenged with mannitol inhalation. The experiment in a line: Clinical trial: mannitol challenge test in asthma patients (PD15, FEV1, safety). Format: in vivo, human. Particulars: for long-term prophylactic effect on mannitol-induced asthma (mannitol PD15 at placebo visit): n=4. The method, then:
This study comprised male and female asthma patients (18 to 46 years of age) with a positive asthma test (as determined by a mannitol challenge test (vide infra) performed within 15 days prior to enrolment at the first screening visit, Visit 1).
It was a double-blind, randomized, placebo-controlled, cross-over trial assessing the efficacy of orally administered single doses of placebo and 40 mg and 400 mg of pemirolast (immediate release tablets containing pemirolast sodium hemihydrate, as well as microcrystalline cellulose, mannitol, copovidone fine, croscarmellose sodium, anhydrous colloidal silica and magnesium stearate) in patients challenged with mannitol inhalation as described below.
The patients were exposed to the different treatments at three separate hospital visits at least 2 (mean 6.8, median 6) days apart. The data reported in FIGS. 5 and 6 below represent the patients that received placebo treatment at the first visit (n=8) or placebo at the second visit (after 40 mg at the first visit (n=4) or after 400 mg at the first visit (n=4)).
All doses were administered 3 hours before initiation of the mannitol challenge test to ensure peak plasma concentrations of pemirolast when the mannitol challenge was performed (blood samples for analysing plasma concentrations of pemirolast were collected 3 hours after drug administration).
There were 5 visits during the trial: A screening visit (Visit 1, within 15 days before Visit 2), three visits for treatment with Investigational Medicinal Products (IMP; pemirolast 40 or 400 mg, or placebo) (Visit 2-4, spaced at least 2 days apart), and a final follow-up visit by telephone (Visit 5, at least 2, but less than 4 days after Visit 4 and within 30 days of Visit 2).
The primary endpoint in the study was the Provocation Dose (PD) of mannitol resulting in a 15% fall in Forced Expiratory Volume during 1 second (FEV1; values given in Litres (L)) (PD15 for mannitol), which is recognised by regulatory authorities as an acceptable method to evaluate potential efficacy of asthma drugs (European Medicines Agency. Note for Guidance on Clinical Investigation of Medicinal Products for Treatment of Asthma, 2013).
The mannitol challenge test (Aridol®, Pharmaxis Ltd, Frenchs Forest, Sydney Australia) was performed as follows: application of nose clip and challenge with 0 (empty capsule acting as placebo), 5, 10, 20, 40, 80, 160, 160, 160 and 160 mg of mannitol via the Halermatic (the 80 and 160 mg doses were given as multiple doses of 40 mg capsules). After inhalation, subjects were instructed to hold their breath for 5 seconds.
At least 2 repeatable FEV1 manoeuvres were performed 60 seconds after each dose and the highest FEV1 was used in the calculation. […]

Details of series [7]: species or system Beagles (dog). The note with it: dog, in vivo. An excerpt:
There were no major differences in kinetics between males and females.

The target in another series is hERG potassium channel (Homo sapiens, UniProt Q12809). The method, then:
This study was performed by PhysioStim, France, a GLP compliant facility.
The effects of pemirolast on hERG currents in HEK-293 cells stably expressing the hERG potassium channel were studied using patch-clamp technique.

“Also recorded” adds a separate entry of the source. Read-outs that look alike come from different tables or passages of the source.

Chain of hERG potassium channel (Q12809 whole entry): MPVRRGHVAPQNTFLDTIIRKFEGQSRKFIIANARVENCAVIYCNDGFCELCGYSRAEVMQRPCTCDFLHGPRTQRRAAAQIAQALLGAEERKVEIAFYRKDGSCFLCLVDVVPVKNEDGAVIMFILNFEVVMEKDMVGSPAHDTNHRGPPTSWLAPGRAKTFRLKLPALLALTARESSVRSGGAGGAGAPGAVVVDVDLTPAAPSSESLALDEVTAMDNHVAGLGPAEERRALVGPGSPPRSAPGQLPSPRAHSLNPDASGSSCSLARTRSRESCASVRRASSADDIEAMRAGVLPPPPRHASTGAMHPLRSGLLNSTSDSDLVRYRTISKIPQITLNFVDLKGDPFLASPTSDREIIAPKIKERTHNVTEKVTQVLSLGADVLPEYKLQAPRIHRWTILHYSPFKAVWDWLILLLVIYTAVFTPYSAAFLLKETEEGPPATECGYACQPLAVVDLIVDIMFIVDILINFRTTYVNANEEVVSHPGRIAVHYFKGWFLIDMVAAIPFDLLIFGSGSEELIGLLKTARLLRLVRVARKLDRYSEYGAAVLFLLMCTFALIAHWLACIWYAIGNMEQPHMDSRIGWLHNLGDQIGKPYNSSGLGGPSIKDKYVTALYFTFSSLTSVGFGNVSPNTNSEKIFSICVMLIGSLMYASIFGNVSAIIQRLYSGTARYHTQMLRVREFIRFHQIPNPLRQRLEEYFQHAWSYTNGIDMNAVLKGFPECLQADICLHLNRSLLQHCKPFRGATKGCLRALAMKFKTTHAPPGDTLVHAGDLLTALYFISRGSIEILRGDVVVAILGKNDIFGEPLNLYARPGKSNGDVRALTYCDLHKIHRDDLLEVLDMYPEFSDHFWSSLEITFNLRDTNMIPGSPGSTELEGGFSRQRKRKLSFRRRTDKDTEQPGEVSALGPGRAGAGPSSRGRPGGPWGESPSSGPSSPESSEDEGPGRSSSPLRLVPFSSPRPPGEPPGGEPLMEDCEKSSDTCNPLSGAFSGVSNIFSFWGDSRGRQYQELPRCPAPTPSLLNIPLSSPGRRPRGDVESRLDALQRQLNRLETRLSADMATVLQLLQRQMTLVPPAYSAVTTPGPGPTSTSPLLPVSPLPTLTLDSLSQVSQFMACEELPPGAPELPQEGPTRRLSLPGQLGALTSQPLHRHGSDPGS

Turning to `Cc1cccn2c(=O)c(-c3nnn[nH]3)cnc12` [pemirolast], in series [1], the “potency relative to theophylline” value is on record as “one seventh”. Also, the safety and tolerability result in series [2] is “safe and well-tolerated”. Also, the PAF-induced bronchoconstriction result in series [3] is reported as “inhibited”. In addition, the antigen-induced bronchoconstriction result in series [3] is on record as “inhibited”. Moreover, the “baseline production of PGD2 in asthmatics without ongoing attacks” value in the series with prostaglandin D2 (3 hours after administration of 40 mg) is recorded as “not”; with prostaglandin D2 (3 hours after administration of 400 mg), “significantly reduced”. Further, the “urinary levels of the PGD2 biomarker (11β-PGF2α), 400 mg versus 40 mg previous treatment” value with prostaglandin D2 (patients treated at least 3 days before with 40 mg or 400 mg, 4+4 patients) was “did not differ”. Further, the “direct bronchodilator activity when used clinically” value in series [4] was “no direct bronchodilator activity”. The effect on bronchoconstriction entry with isolated tracheal muscle (much higher concentrations than 10 μg/mL) was “some effect”. The “effect on bronchoconstriction induced by PGF2α” value with isolated tracheal muscle (pre-treatment at 10 μg/mL) is “no effect”. For the same compound, the “effect on bronchoconstriction induced by leukotriene D4” value in the series with isolated tracheal muscle (pre-treatment at 10 μg/mL) was “no effect”; in the series on human bronchial tissue (10 μg/mL pemirolast, leukotriene D4 1 nM, n=3) it was “no effect”. The “Predicted Cmax” value in series [5] (predicted for 125 mg) is 10070 ng/mL; in [5] (predicted for 200 mg), 16120 ng/mL; in [5] (predicted for 400 mg), 32230 ng/mL. The “effect on bronchoconstriction induced by U-46619” value is listed as “partially reversed” with human bronchial tissue (10 μg/mL pemirolast, 100 nM U-46619, n=2) and “partial reversal” in the series with human bronchial tissue (110 μg/mL pemirolast, 100 nM U-46619). Also, the “effect on bronchoconstriction induced by potassium chloride” value in the series with human bronchial tissue (10 μg/mL pemirolast, KCl 30 mM, n=2) is given as “no effect”. The “effect on bronchoconstriction induced by carbachol” value is given as “no effect” with human bronchial tissue (10 μg/mL pemirolast, n=4) and “partial reversal” in the series on human bronchial tissue (110 μg/mL pemirolast). Besides, the “effect on bronchoconstriction induced by histamine” value in the series with human bronchial tissue (10 μg/mL pemirolast, n=3) is reported as “no effect”; in the series on human bronchial tissue (110 μg/mL pemirolast) it was “partial reversal”. Moreover, the “reversal of PGF2α-induced bronchoconstriction (force)” value with human bronchial tissue (10 μg/ml pemirolast, PGF2α 3 μM pre-contraction, within 15 min, n=4, vehicle 6.8±3.1%) was 21.5±4.4%. The “reduction of PGF2α-induced bronchoconstriction (force)” value in the series with human bronchial tissue (110 μg/mL pemirolast (cumulative), PGF2α 3 μM pre-contraction, within 40 min, n=4, vehicle 18.6±4.9%) turned out to be 72.0±12.6%. In addition, the “effect on the response to KCl” value with human bronchial tissue (110 μg/mL pemirolast, KCl 30 mM) is reported as “little effect”. Further, the “effect on the response to leukotriene D4” value in the series on human bronchial tissue (110 μg/mL pemirolast, leukotriene D4 1 nM) was “little effect”. Moreover, in series [6] (3 hour pre-treatment, oral single dose (pemirolast sodium hemihydrate tablets), asthma patients), the “mannitol PD15” value was “increased”. The “long-term prophylactic effect on mannitol-induced asthma (mannitol PD15 at placebo visit)” value is “not seen” in [6] (placebo treatment preceded by 40 mg dose p.o.) and “resulted in a prophylactic effect; also recorded: tolerated a much higher dose of mannitol” in [6] (single 400 mg dose p.o. given at least 3 days before placebo/mannitol). In series [6] (single oral doses 40 mg and 400 mg, asthma patients), the “adverse events, vital signs, physical examination, haematology and blood biochemistry” value was “no serious adverse events”.
As for `Cc1cccn2c(=O)c(-c3nnn[nH]3)cnc12` [pemirolast potassium], the “safe chronic dose in dogs” value in series [7] is 75 mg/kg daily. Besides, the “decrease of hERG tail current amplitude” value at hERG potassium channel (2.7 μg/mL) was 5.4%; on hERG potassium channel (8 μg/mL) it was 10.2%; at hERG potassium channel (26.6 μg/mL), 14.1%; on hERG potassium channel (79.9 μg/mL) it was 19.0%.

Source of the values: patent publication US9492454B2, “Use of pemirolast in the treatment of acute asthma” (RSPR PHARMA AB, priority 2014, dated 2016).
